Data on ten compounds can be found in ChEMBL document CHEMBL5107965, “The progress of small-molecules and degraders against BCR-ABL for the treatment of CML” (Eur J Med Chem, 2022).

≈ marks a conversion by molar mass, not a printed value.

Series [1] can be described thus: Inhibition of Aurora kinase (unknown origin). Further details: species or system Homo sapiens.
For the next series, the system named is HL-60. The experiment in a line: animal or person. The settings on record: Mus musculus, HL-60, 528 h, read-out: TGI.
In series [2] the target is Protein cereblon/Tyrosine-protein kinase ABL1/Breakpoint cluster region protein (Homo sapiens, UniProt P00519+P11274+Q96SW2). The series is described as follows: Protac activity at CRBN/BCR-ABL in human K562 cells assessed as reduction in BCR-ABL protein levels incubated for 6 hrs by Western blotting analysis. Type of series: cell-based. For orientation: Immunoblotting shows a protein as a band on a membrane.

Series [3] has as its system K562. The experiment in a line: Antiproliferative activity against human K562 cells assessed as cell growth inhibition measured after 24 hrs by WST-8 assay. Type of series: functional, cell-based. The settings on record: K562, 24 h.
A further series relates to KU812 cell line. The experiment in a line: Antiproliferative activity against human KU812 cell line assessed as cell growth inhibition measured after 24 hrs by WST-8 assay. Type of series: functional, cell-based. The settings on record: KU812, 24 h. On the technique in general: Tetrazolium dyes change colour on reduction, which living cells bring about.
The target of series [4] is Tyrosine-protein kinase ABL1 (Homo sapiens, UniProt P00519). The experiment in a line: Binding affinity to human recombinant His-tagged full length ABL1 expressed in baculovirus expression system by TR-FRET assay.
For a further series, the system named is KCL-22. The series is described as follows: Antiproliferative activity against human KCL-22 cells assessed as cell growth inhibition measured after 24 hrs by WST-8 assay. Type of series: functional, cell-based. As to conditions: KCL-22, 24 h.
The subject of series [5] is K562. The series is described as follows: Antiproliferative activity against human K562 cells assessed as cell growth inhibition measured after 48 hrs by WST assay. It is filed as functional, cell-based. As to conditions: K562, 48 h.
Series [6] concerns K562. The series is described as follows: Antiproliferative activity against human K562 cells assessed as cell growth inhibition measured after 24 hrs. Type of series: functional, cell-based. The settings on record: K562, 24 h.
Series [7] has as its target von Hippel-Lindau disease tumor suppressor/Tyrosine-protein kinase ABL1/Breakpoint cluster region protein (Homo sapiens, UniProt P00519+P11274+P40337). The series is described as follows: Protac activity at VHL/BCR-ABL in human K562 cells assessed as reduction in BCR-ABL protein levels by immunoblotting analysis. It is filed as cell-based.
Series [8] in a line: Half life in mouse at 10 mg/kg, po measured after upto 24 hrs by LC-MS/MS analysis. It is filed as ADME, organism-based. As to conditions: in vivo.
Series [9] can be described thus: Cmax in mouse at 10 mg/kg, po measured after upto 24 hrs by LC-MS/MS analysis. Type of series: ADME, organism-based. Further details: dose 10 mg/kg, time < 24 hrs, route po. As to conditions: in vivo.
The next series concerns Leukemia cell. The experiment in a line: Cytotoxicity against human Leukemia cell assessed as cell growth inhibition measured after 48 hrs by MTT assay. Type of series: functional, cell-based.
Series [10] is described as follows: Cytotoxicity against human CD34-positive/CD38-negative leukemic cell assessed as cell growth inhibition measured after 48 hrs by MTT assay. Type of series: functional, cell-based.
Series [11] concerns K562. The experiment in a line: Antiproliferative activity against imatinib resistant human K562 cells assessed as cell growth inhibition measured after 48 hrs by MTT assay. Type of series: functional, cell-based. The settings on record: K562, 48 h.
The test system of series [12] is K562. The series is described as follows: Antiproliferative activity against human K562 cells assessed as cell growth inhibition. It is filed as functional, cell-based.
Series [13] relates to BaF3. The series is described as follows: Antiproliferative activity against mouse BaF3 cells harbouring ABL-T315I mutant assessed as cell growth inhibition measured after 72 hrs by MTT assay. Type of series: functional, cell-based. The settings on record: BaF3, 72 h.
Series [14] deals with BaF3. The experiment in a line: cells. As to conditions: Mus musculus, BaF3, 72 h.
Description: Antiproliferative activity against mouse BaF3 cells harbouring wild type ABL assessed as cell growth inhibition measured after 72 hrs by MTT assay
Series [15] is described as follows: Oral bioavailability in BALB/c mouse at 30 mg/kg via gavage. It is filed as ADME, organism-based. As to conditions: in vivo.
Series [16] is described as follows: Half life in BALB/c mouse at 30 mg/kg, po via gavage. Type of series: ADME, organism-based. The settings on record: in vivo.
Series [17] can be described thus: Cmax in BALB/c mouse at 30 mg/kg, po via gavage. Type of series: ADME, organism-based. Further details: dose 30 mg/kg, route po. As to conditions: in vivo.
Series [18] can be described thus: Tmax in BALB/c mouse at 30 mg/kg, po via gavage. It is filed as ADME, organism-based. As to conditions: in vivo.
For series [19], the target named is Tyrosine-protein kinase Lyn (Homo sapiens, UniProt P07948). The series is described as follows: Inhibition of LYN (unknown origin) in presence of [gamma33P]-ATP and ATP by ELISA method.
Series [20] in a line: AUC in BALB/c mouse at 30 mg/kg, po via gavage. It is filed as ADME, organism-based. The settings on record: in vivo. Also noted: dose 30 mg/kg, route po.
Series [21] relates to K562. The experiment in a line: Antiproliferative activity against imatinib resistant human K562 cells assessed as cell growth inhibition measured after 24 hrs by MTT assay. The settings on record: K562, 24 h. Type of series: functional, cell-based.
A short description of series [22]: Cytotoxicity against human Hematopoietic stem cell assessed as cell growth inhibition measured after 48 hrs by MTT assay. It is filed as toxicity, cell-based. The settings on record: hematopoietic stem cells.
Series [23] is described as follows: Antiproliferative activity against human KM3 cells assessed as cell growth inhibition measured after 72 hrs by MTT assay. As to conditions: KM3, 72 h. Type of series: functional, cell-based.
Series [24] is described as follows: Antiproliferative activity against human KM3 cells assessed as cell growth inhibition measured after 24 hrs by MTT assay. It is filed as functional, cell-based. As to conditions: KM3, 24 h.
The nature of series [25]: Antiproliferative activity against human KM3 cells assessed as cell growth inhibition measured after 48 hrs by MTT assay. Type of series: functional, cell-based. The settings on record: KM3, 48 h.
For series [26], the system named is K562. The experiment in a line: Antiproliferative activity against human K562 cells assessed as cell growth inhibition measured after 24 to 48 hrs by MTS assay. Type of series: functional, cell-based.
Series [27] relates to KBM5. The series is described as follows: Antiproliferative activity against human KBM5 cells assessed as cell growth inhibition measured after 24 to 48 hrs by MTS assay. Type of series: functional, cell-based.
Series [28] relates to KBM5. The experiment in a line: Antiproliferative activity against human KBM5 cells harbouring T315I mutant assessed as cell growth inhibition measured after 24 to 48 hrs by MTS assay. Type of series: functional, cell-based.

Sequence of Tyrosine-protein kinase Lyn (P07948 whole entry): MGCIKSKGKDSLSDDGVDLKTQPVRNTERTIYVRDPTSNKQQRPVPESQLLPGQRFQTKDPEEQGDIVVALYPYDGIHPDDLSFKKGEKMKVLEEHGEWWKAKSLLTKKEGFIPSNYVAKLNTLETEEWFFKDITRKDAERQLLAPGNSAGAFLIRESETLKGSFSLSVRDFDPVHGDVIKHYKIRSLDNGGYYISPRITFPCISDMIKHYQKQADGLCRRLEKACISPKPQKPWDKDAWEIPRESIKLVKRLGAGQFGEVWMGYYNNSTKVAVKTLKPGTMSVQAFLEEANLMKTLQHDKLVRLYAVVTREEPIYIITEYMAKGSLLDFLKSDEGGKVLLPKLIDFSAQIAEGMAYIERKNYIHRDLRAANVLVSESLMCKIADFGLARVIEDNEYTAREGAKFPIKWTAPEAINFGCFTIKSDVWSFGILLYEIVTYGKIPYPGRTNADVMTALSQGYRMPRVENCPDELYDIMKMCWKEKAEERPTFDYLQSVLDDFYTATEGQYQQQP
Sequence of Tyrosine-protein kinase ABL1 (P00519 whole entry): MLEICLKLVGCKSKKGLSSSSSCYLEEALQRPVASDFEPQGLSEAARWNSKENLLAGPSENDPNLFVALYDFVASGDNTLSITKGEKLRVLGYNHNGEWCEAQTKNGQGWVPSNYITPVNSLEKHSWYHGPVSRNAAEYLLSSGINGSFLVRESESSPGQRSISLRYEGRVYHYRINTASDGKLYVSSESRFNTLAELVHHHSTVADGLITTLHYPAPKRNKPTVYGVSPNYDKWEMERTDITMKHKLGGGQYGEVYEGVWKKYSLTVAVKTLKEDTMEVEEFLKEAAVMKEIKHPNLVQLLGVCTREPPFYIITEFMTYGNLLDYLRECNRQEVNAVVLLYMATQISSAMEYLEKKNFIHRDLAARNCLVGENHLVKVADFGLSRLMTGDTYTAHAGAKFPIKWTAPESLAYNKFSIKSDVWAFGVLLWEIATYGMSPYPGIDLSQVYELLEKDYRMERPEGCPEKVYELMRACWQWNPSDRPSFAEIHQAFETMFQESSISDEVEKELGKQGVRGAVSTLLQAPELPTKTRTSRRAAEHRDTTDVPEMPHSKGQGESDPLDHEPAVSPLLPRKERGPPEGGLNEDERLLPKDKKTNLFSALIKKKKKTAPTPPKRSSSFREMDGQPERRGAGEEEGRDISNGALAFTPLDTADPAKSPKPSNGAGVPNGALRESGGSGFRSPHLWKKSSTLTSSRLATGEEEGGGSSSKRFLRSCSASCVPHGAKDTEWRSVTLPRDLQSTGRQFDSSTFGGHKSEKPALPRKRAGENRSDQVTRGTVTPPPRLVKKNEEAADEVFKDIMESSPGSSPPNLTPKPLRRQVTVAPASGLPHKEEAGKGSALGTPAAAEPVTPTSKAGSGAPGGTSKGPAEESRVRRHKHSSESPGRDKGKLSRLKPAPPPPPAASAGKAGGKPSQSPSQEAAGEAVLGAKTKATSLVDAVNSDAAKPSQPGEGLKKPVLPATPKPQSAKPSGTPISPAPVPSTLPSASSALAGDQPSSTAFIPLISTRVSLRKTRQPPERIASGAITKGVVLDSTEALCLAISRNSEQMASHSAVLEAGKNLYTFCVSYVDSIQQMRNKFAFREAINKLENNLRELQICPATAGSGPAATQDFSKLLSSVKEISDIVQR
Sequence of von Hippel-Lindau disease tumor suppressor/Tyrosine-protein kinase ABL1/Breakpoint cluster region protein (P00519 whole entry): as above
Sequence of von Hippel-Lindau disease tumor suppressor/Tyrosine-protein kinase ABL1/Breakpoint cluster region protein (P11274 whole entry): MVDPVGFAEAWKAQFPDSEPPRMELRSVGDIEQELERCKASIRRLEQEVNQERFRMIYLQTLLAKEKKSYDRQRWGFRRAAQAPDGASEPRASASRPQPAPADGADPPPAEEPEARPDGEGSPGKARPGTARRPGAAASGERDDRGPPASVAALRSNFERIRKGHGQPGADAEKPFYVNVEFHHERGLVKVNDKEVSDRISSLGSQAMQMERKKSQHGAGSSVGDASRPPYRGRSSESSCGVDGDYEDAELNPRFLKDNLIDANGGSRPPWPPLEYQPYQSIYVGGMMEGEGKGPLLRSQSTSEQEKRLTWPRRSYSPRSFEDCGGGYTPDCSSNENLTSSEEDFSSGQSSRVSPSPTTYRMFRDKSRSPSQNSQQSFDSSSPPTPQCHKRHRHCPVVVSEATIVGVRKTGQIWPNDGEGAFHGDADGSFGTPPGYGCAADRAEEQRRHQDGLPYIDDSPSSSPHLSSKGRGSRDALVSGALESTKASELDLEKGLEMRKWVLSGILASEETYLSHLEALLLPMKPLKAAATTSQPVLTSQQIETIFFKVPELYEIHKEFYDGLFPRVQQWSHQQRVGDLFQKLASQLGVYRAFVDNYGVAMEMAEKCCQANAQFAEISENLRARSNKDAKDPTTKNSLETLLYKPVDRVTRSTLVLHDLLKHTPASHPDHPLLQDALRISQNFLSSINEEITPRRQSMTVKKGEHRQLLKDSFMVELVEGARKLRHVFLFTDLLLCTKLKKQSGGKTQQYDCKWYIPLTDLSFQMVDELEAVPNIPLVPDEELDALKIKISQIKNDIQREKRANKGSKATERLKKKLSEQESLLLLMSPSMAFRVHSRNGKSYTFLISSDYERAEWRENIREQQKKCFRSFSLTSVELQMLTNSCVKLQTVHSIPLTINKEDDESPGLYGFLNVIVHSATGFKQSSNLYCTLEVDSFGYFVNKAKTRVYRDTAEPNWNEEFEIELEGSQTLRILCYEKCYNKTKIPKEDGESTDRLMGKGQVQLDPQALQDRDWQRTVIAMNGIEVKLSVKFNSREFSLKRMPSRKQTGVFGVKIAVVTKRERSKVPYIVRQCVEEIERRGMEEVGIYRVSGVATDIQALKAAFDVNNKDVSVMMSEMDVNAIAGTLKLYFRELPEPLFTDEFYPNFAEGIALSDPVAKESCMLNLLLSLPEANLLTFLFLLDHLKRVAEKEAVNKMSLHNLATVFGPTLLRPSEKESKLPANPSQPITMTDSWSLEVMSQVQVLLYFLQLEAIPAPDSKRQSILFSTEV
Sequence of von Hippel-Lindau disease tumor suppressor/Tyrosine-protein kinase ABL1/Breakpoint cluster region protein (P40337 whole entry): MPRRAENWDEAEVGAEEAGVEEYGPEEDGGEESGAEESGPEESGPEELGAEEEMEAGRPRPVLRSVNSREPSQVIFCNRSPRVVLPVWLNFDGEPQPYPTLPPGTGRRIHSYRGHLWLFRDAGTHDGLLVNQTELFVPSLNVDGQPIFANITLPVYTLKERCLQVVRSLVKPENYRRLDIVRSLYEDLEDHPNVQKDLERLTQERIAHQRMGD
Sequence of Protein cereblon/Tyrosine-protein kinase ABL1/Breakpoint cluster region protein (P00519 whole entry): as the sequence (P00519 whole entry) above
Sequence of Protein cereblon/Tyrosine-protein kinase ABL1/Breakpoint cluster region protein (P11274 whole entry): as the sequence (P11274 whole entry) above
Sequence of Protein cereblon/Tyrosine-protein kinase ABL1/Breakpoint cluster region protein (Q96SW2 whole entry): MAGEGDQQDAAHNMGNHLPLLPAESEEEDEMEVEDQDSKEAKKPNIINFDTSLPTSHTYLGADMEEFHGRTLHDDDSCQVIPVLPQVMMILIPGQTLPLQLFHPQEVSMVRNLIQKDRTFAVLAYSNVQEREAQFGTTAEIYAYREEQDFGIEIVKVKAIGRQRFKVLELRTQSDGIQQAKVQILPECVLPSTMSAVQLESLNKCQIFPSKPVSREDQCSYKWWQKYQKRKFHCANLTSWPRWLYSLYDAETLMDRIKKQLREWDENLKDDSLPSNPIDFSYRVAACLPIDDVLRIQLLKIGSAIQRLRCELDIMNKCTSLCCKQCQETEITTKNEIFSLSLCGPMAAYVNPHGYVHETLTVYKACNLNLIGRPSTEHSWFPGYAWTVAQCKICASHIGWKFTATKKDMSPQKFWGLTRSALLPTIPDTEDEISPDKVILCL
Description for HL-60: Antitumor activity against human HL-60 cells xenografted in SCID mouse assessed as tumor growth inhibition at 30 mg/kg, iv measured after 22 days relative to control

In general, IC50 refers to the midpoint of a concentration-inhibition curve. `CO[C@H](C(=O)N1Cc2[nH]nc(NC(=O)c3ccc(N4CCN(C)CC4)cc3)c2C1)c1ccccc1`: inhibition in series [1] was half-maximal at 13 nM (IC50). In addition, the inhibition in vivo at 30 mg/kg in the series on HL-60 stood at 98%.
Turning to `CN[C@@H](C)C(=O)N[C@H](C(=O)N1CCC[C@H]1c1nc(C(=O)c2cccc(OCCCOCC(=O)N3CCN(c4cc(Nc5ncc(C(=O)Nc6c(C)cccc6Cl)s5)nc(C)n4)CC3)c2)cs1)C1CCCCC1`, in series [2], the DC50 was 10 nM. In addition, the IC50 in the series with K562 [3] was 8.92 nM; in the series on KU812 cell line, 6.72 nM; in series [4], 0.54 nM; with KCL-22, 8.06 nM.
`CN[C@@H](C)C(=O)N[C@H](C(=O)N1CCC[C@H]1c1nc(C(=O)c2ccc(OCCOCCOCCOCC(=O)N3CCN(c4cc(Nc5ncc(C(=O)Nc6c(C)cccc6Cl)s5)nc(C)n4)CC3)cc2)cs1)C1CCCCC1`: the IC50 in the series on K562 [5] was determined as 8.6 nM.
The half-life is how long it takes for the measured level to halve. Read a high half-life as slow loss. A word on the Cmax: it is the peak of the concentration-time curve. For `Cc1ncsc1-c1ccc(CNC(=O)[C@@H]2C[C@@H](O)CN2C(=O)[C@@H](NC(=O)COCCNc2ccc(C(=O)Nc3ccc(OC(F)(F)Cl)cc3)cc2-c2cc[nH]n2)C(C)(C)C)cc1`, the IC50 in the series with K562 [6] was 169 nM. Besides, the DC50 in series [7] came out at 30 nM. Moreover, the half-life in series [8] was 3.67 h. In series [9], the Cmax was 536 ng/mL.
With `COc1ccc2cc1Oc1ccc(cc1)C[C@H]1c3cc(c(OC)cc3CCN1C)Oc1c(OC)c(OC)cc3c1[C@H](C2)N(C)CC3.O=C(O)CC(O)(CC(=O)O)C(=O)O`, the concentration for half-maximal inhibition (IC50) (with Leukemia cell; in series [10]; in the series with K562 [11]) was 1.2 µg/mL throughout.
Regarding `COc1cc2c3cc1Oc1c(OC)c(OC)cc4c1[C@@H](Cc1ccc(OC(=O)c5ccc(Cl)cc5)c(c1)Oc1ccc(cc1)C[C@@H]3N(C)CC2)N(C)CC4`, the IC50 with K562 [12] is 0.5 µg/mL (≈ 0.669 µM).
With `O=C(Nc1c[nH]nc1-c1nc2ccc(CN3CCOCC3)cc2[nH]1)NC1CC1` [AT-9283], the figures for the IC50 in the series on BaF3 [13] and in the series on BaF3 [14] were 11 nM and 13 nM, respectively.
Usually bioavailability stands for dose-corrected exposure relative to a reference, in per cent. High values mean much systemic uptake, low ones little systemic uptake. A word on the Tmax: it is the time at which the peak concentration occurs. Usually AUC stands for the area under the concentration-time curve, a measure of exposure. Consider `Cc1ccc(NC(=O)c2ccc(CN3CC[C@H](N(C)C)C3)c(C(F)(F)F)c2)cc1Nc1nccc(-c2cncnc2)n1` [BAFETINIB], for which the bioavailability in series [15] was determined as 32%. In series [16], this compound had a half-life of 1 h. Further, in series [17], the highest concentration (Cmax) amounted to 661 ng/mL. Further, in series [18], the Tmax was found to be 2 h. The 50% inhibitory concentration (IC50) in series [19] was 19 nM. Also, in series [20], the area under the curve (AUC) worked out at 2290 ng·h/mL.
In the case of `COc1cc2c3cc1Oc1c(OC)c(OC)cc4c1[C@@H](Cc1ccc(O)c(c1)Oc1ccc(cc1)C[C@@H]3N(C)CC2)N(C)CC4` [BERBAMINE], the IC50 was 17100 nM in the series with K562 [21]; 3.84 µg/mL (≈ 6.31 µM) in series [23]; 11100 nM with K562 [11]; 8.17 µg/mL (≈ 13.4 µM) in [24]; 5.09 µg/mL (≈ 8.36 µM) in [25]. In addition, the concentration for half-maximal inhibition (IC50) at 48 h in series [22] came to 185 µg/mL (≈ 304 µM).
On to `COc1ccc(-c2cc(=O)c3c(O)cc(O)cc3o2)cc1O` [DIOSMETIN], for which the IC50 amounted to 8420 nM in the series with K562 [26], 8520 nM in the series on KBM5 [27] and 6460 nM in the series with KBM5 [28].
